According to ChEMBL document CHEMBL3132768, “Design, synthesis and biological evaluation of TAR and cTAR binders as HIV-1 nucleocapsid inhibitors” (Medchemcomm, 2013):
pIC50: −log10 of the molar value. Calls of active or inactive are those of the source. No cut-off for these calls is given here.

Legend:
[1] = Inhibition of NC-induced HIV1 TAR destabilization assessed as change in melting temperature by fluorescence quenching assay; set-up: species or system Human immunodeficiency virus 1
[2] = system: Nucleic Acid; test: Binding affinity to HIV1 TAR RNA assessed as change in melting temperature by […]; format: nucleic-acid assay; conditions: Human immunodeficiency virus 1
[3] = Inhibition of NC-induced HIV1 cTAR destabilization assessed as change in melting temperature by fluorescence quenching assay; set-up: species or system Human immunodeficiency virus 1
[4] = Inhibition of NC-induced HIV1 TAR/cTAR annealing assessed as change in melting temperature preincubated for 15 mins before NC addition measured after 15 mins by gel electrophoresis; set-up: species or system Human immunodeficiency virus 1
[5] = Octanol-water partition co-efficient, log P of the compound by shake flask method; format: physicochemical
[6] = system: Jurkat; test: Cytotoxicity against human Jurkat cells up to 100 uM after 72 hrs by MTT assay; format: cell-based
[7] = system: Nucleic Acid; test: Binding affinity to HIV1 TAR/cTAR RNA/DNA duplex assessed as change in melting temperature by […]; format: nucleic-acid assay; conditions: Human immunodeficiency virus 1
[8] = system: Human immunodeficiency virus 1; test: Binding affinity to HIV1 cTAR DNA assessed as change in melting temperature by […]
[9] = system: Human immunodeficiency virus 1; test: Antiviral activity against HIV1 infected in human Jurkat cells assessed as inhibition of viral replication after 3 to 4 days; format: functional, organism-based
[10] = system: Human immunodeficiency virus 1; test: Antiviral activity against HIV1 infected in human Jurkat cells assessed as inhibition of viral replication by CAT gene-based transcomplementation assay; format: functional, organism-based
[11] = system: Jurkat; test: Drug uptake in human Jurkat cells at 100 uM after 3 hrs by spectrophotometry; format: ADME, cell-based

O=C(CCNC(=O)C1CCNCC1)Nc1ccc2c(c1)C(=O)c1ccc(NC(=O)CCNC(=O)C3CCNCC3)cc1C2=O.O=C(O)C(F)(F)F.O=C(O)C(F)(F)F
pIC50 [1]: 4.37
ΔTm [2]: 1.49 °C
pIC50 [3]: 4.44
pIC50 [4]: 4.02
logP [5]: -2.91
Activity [6]: Non-toxic
ΔTm [7]: 0.65 °C
ΔTm [8]: 1.11 °C
Activity [9]: inactive

NCCCC(N)C(=O)NCCC(=O)Nc1ccc2c(c1)C(=O)c1ccc(NC(=O)CCNC(=O)C(N)CCCN)cc1C2=O.O=C(O)C(F)(F)F.O=C(O)C(F)(F)F.O=C(O)C(F)(F)F.O=C(O)C(F)(F)F (stereo unspecified)
pIC50 [1]: 5.49
ΔTm [2]: 16.2 °C
Activity [10]: inactive
pIC50 [3]: 5.69
pIC50 [4]: 4.66
logP [5]: -2.51
Activity [6]: Non-toxic
ΔTm [7]: 3.1 °C
ΔTm [8]: 13.8 °C

Nc1ccc(CC(N)C(=O)NCCC(=O)Nc2ccc3c(c2)C(=O)c2ccc(NC(=O)CCNC(=O)C(N)Cc4ccc(N)cc4)cc2C3=O)cc1.O=C(O)C(F)(F)F.O=C(O)C(F)(F)F.O=C(O)C(F)(F)F.O=C(O)C(F)(F)F (stereo unspecified)
pIC50 [4]: 4.37
logP [5]: -2.51
Activity [6]: Non-toxic
Activity [9]: inactive

NCCC(=O)NCCC(=O)Nc1ccc2c(c1)C(=O)c1ccc(NC(=O)CCNC(=O)CCN)cc1C2=O.O=C(O)C(F)(F)F.O=C(O)C(F)(F)F
pIC50 [1]: 5.00
ΔTm [2]: 2.79 °C
pIC50 [3]: 4.93
pIC50 [4]: 4.11
logP [5]: -2.98
Activity [6]: Non-toxic
ΔTm [7]: 1.12 °C
ΔTm [8]: 2.14 °C
Activity [9]: inactive

NC1(C(=O)NCCC(=O)Nc2ccc3c(c2)C(=O)c2ccc(NC(=O)CCNC(=O)C4(N)CCNCC4)cc2C3=O)CCNCC1.O=C(O)C(F)(F)F.O=C(O)C(F)(F)F.O=C(O)C(F)(F)F.O=C(O)C(F)(F)F
pIC50 [1]: 4.86
ΔTm [2]: 2.23 °C
pIC50 [3]: 4.81
logP [5]: -2.91
Activity [6]: Non-toxic
ΔTm [7]: 1.12 °C
ΔTm [8]: 2.14 °C
Activity [9]: inactive

NCC(N)C(=O)NCCC(=O)Nc1ccc2c(c1)C(=O)c1ccc(NC(=O)CCNC(=O)C(N)CN)cc1C2=O.O=C(O)C(F)(F)F.O=C(O)C(F)(F)F.O=C(O)C(F)(F)F.O=C(O)C(F)(F)F (stereo unspecified)
pIC50 [1]: 4.67
ΔTm [2]: 2.38 °C
pIC50 [3]: 4.64
logP [5]: -2.56
Activity [6]: Non-toxic
ΔTm [7]: 0.28 °C
ΔTm [8]: 1.92 °C
Activity [9]: inactive

NCC1CCC(C(=O)NCCC(=O)Nc2ccc3c(c2)C(=O)c2ccc(NC(=O)CCNC(=O)C4CCC(CN)CC4)cc2C3=O)CC1.O=C(O)C(F)(F)F.O=C(O)C(F)(F)F (stereo unspecified)
pIC50 [1]: 4.75
ΔTm [2]: 0.97 °C
pIC50 [3]: 4.86
logP [5]: -2.31
Activity [6]: Non-toxic
ΔTm [7]: 0.84 °C
ΔTm [8]: 1.86 °C
Activity [9]: inactive

NCCCCC(N)C(=O)NCCC(=O)Nc1ccc2c(c1)C(=O)c1ccc(NC(=O)CCNC(=O)C(N)CCCCN)cc1C2=O (stereo unspecified)
pIC50 [1]: 5.43
ΔTm [2]: 2.88 °C
pIC50 [3]: 5.42
pIC50 [4]: 4.35
ΔTm [7]: 1.12 °C
ΔTm [8]: 2.14 °C
Drug uptake [11]: Not Active

NCCC(N)C(=O)NCCC(=O)Nc1ccc2c(c1)C(=O)c1ccc(NC(=O)CCNC(=O)C(N)CCN)cc1C2=O.O=C(O)C(F)(F)F.O=C(O)C(F)(F)F.O=C(O)C(F)(F)F.O=C(O)C(F)(F)F (stereo unspecified)
pIC50 [1]: 5.20
ΔTm [2]: 8.95 °C
pIC50 [3]: 5.15
pIC50 [4]: 4.36
logP [5]: -2.55
Activity [6]: Non-toxic
ΔTm [7]: 1.77 °C
ΔTm [8]: 10.5 °C
Activity [9]: inactive
